Each structure is given as a SMILES string.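 Assay format: 96-well plates, 48-hour exposure. GI50 marks 50% less growth.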 Activity calls are given as the source filed them. No stated cut-off is given here; in the data, active = GI50 up to about 1.1 µM and inactive = higher.

The text below walks through data of ChEMBL document CHEMBL1201862, “PubChem BioAssay data set” (2004).

Test systems include HOP-18; XF498; DMS-114; M19-MEL; LXFL 529; SNB-78; RXF 631.
What all share (assay): NCI tumour cell line growth inhibition, 48 h

With `CC[P+](C)(Cc1ccccc1)c1ccccc1` (centres undefined), the GI50 with HOP-18 was > 100 µM (inactive); with XF498, 24.7 µM (inactive); in the assay with DMS-114 it was 87.7 µM (inactive); in the assay with M19-MEL it was 43.4 µM (inactive); in the assay with LXFL 529, 74.6 µM (inactive); in the assay on SNB-78, > 100 µM (inactive).
On to `O=C1C=C(c2ccccc2)NC1(c1ccccc1)c1cc(-c2ccccc2)[nH]c1-c1ccccc1` (centres undefined), for which the GI50 with HOP-18 is > 100 µM (inactive); with XF498, < 0.01 µM (active); in the assay on DMS-114, > 100 µM (inactive); with M19-MEL it was > 100 µM (inactive); in the assay with RXF 631, > 100 µM (inactive); in the assay with LXFL 529, > 100 µM (inactive). In the assay on SNB-78, the GI50 is > 100 µM (inactive).
As to `Cc1cc(C)c2c(c1)CN1CN2Cc2cc(C)cc(C)c21`, the GI50 is 36.4 µM (inactive) in the assay with HOP-18; 18.2 µM (inactive) with XF498; 23 µM (inactive) in the assay on M19-MEL; 32.7 µM (inactive) with LXFL 529; 17.5 µM (inactive) in the assay on SNB-78.
Consider `COc1cc([C@@H]2c3cc4c(cc3[C@@H](NCc3cccc(C#N)c3)C3COC(=O)[C@@H]32)OCO4)cc(OC)c1O` (some centres undefined), for which the GI50 was > 100 µM (inactive) with HOP-18; 1.87 µM (inactive) in the assay on DMS-114; 5.7 µM (inactive) with M19-MEL; 1.29 µM (inactive) with RXF 631; 5.9 µM (inactive) with LXFL 529.
Take `Cc1cc(=O)n(-c2c(C)cccc2Cl)c(/C=C(\O)c2ccncc2)n1`: the GI50 in the assay on HOP-18, in the assay with DMS-114, in the assay on RXF 631, in the assay on LXFL 529 and in the assay with SNB-78 was > 100 µM (inactive) throughout.
In the case of `CC1=C(NC(=O)C(=O)NNC(=O)c2ccncc2)C(=O)c2ccccc2C1=O`, the GI50 was 10.5 µM (inactive) in the assay on HOP-18; 4.76 µM (inactive) in the assay on DMS-114; 1.64 µM (inactive) in the assay with M19-MEL; 40.4 µM (inactive) in the assay on RXF 631; 14.6 µM (inactive) in the assay on LXFL 529; 14.5 µM (inactive) in the assay on SNB-78.
Turning to `CCOC(=O)C(=O)Nc1ccccc1C`, the GI50 in the assay with XF498 is 24.9 µM (inactive); in the assay on DMS-114 it was > 100 µM (inactive); in the assay with M19-MEL it was > 100 µM (inactive); in the assay on RXF 631, > 100 µM (inactive); in the assay with LXFL 529, > 100 µM (inactive); in the assay with SNB-78 it was > 100 µM (inactive).
Regarding `CCCCOC(=O)/C(CC(=O)C=C(C)C)=N\NS(=O)(=O)c1ccc(C)cc1`, the GI50 in the assay on HOP-18 is > 100 µM (inactive); with XF498 it was > 100 µM (inactive); in the assay with DMS-114, 21.1 µM (inactive); in the assay with M19-MEL it was > 100 µM (inactive); with LXFL 529, > 100 µM (inactive); with SNB-78, > 100 µM (inactive).
Turning to `O=C1Cc2ccccc2N1/N=C\c1ccc([N+](=O)[O-])cc1`, the GI50 in the assay with HOP-18, in the assay with XF498, with DMS-114, in the assay with M19-MEL and in the assay on SNB-78 was > 100 µM (inactive) each time.
With `CC(C)c1ccc(Cc2ccc(C(C)C)c(NC(=O)C(=O)Cc3cnc4ccccc4n3)c2C(C)C)c(C(C)C)c1NC(=O)C(=O)Cc1cnc2ccccc2n1`, the GI50 in the assay with DMS-114, in the assay on M19-MEL, in the assay on RXF 631, in the assay with LXFL 529 and with SNB-78 was > 100 µM (inactive) each time.
In the case of `CC(=O)N1CC2Nc3ccccc3C2CC1CO` (centres undefined), the GI50 with XF498, in the assay on DMS-114, with M19-MEL, with RXF 631, with LXFL 529 and in the assay with SNB-78 was > 100 µM (inactive) throughout.
With `[N-]=[N+]=C1C(=O)C2CC3CC(C2)CC1C3`, the GI50 in the assay on HOP-18, in the assay with XF498, with DMS-114, with M19-MEL, with LXFL 529 and in the assay with SNB-78 was > 100 µM (inactive) throughout.
Take `CC1(C)Cc2c(oc3ncnc(N)c23)CS1`: the GI50 in the assay with XF498, in the assay on DMS-114, in the assay on M19-MEL, with RXF 631, in the assay on LXFL 529 and in the assay on SNB-78 was > 100 µM (inactive) throughout.
With `CCCNC(=O)C1C(=O)C(=O)N(CCC)C1=O` (centres undefined), the GI50 with HOP-18, in the assay with XF498, with DMS-114, in the assay on M19-MEL, with LXFL 529 and with SNB-78 was > 100 µM (inactive) throughout.
For the compound `O=C(O)c1ccc(Nc2nc3nn(Cc4ccccc4)cc3c(=O)s2)cc1`, the GI50 was 74.8 µM (inactive) with HOP-18; > 100 µM (inactive) with DMS-114; > 100 µM (inactive) in the assay on M19-MEL; > 100 µM (inactive) with LXFL 529; > 100 µM (inactive) in the assay with SNB-78.
`Cc1ccc(C2OC(COCc3ccc(Cl)cc3)C(OCc3ccc(Cl)cc3)C2O)cc1` (centres undefined): the GI50 with HOP-18 was 79.4 µM (inactive); in the assay on XF498 it was 10.2 µM (inactive); in the assay on DMS-114 it was 5.24 µM (inactive); with M19-MEL, 11.4 µM (inactive); in the assay with LXFL 529, 8.47 µM (inactive); with SNB-78 it was 14.3 µM (inactive).
With `OC(c1ccccc1Br)(c1ccccc1Br)C(F)(F)F`, the GI50 with HOP-18 was 42.8 µM (inactive); with XF498, 23.1 µM (inactive); in the assay with DMS-114, 20.8 µM (inactive); in the assay with M19-MEL, 23.9 µM (inactive); in the assay on LXFL 529 it was 42.1 µM (inactive).
Regarding `OCC(O)C(OC1OC(CO)C(O)C(O)C1O)c1nn(-c2ccc(Cl)cc2)c2nc3cc(Cl)ccc3nc12` (centres undefined), the GI50 with XF498, in the assay with DMS-114, in the assay on M19-MEL, in the assay with RXF 631, with LXFL 529 and with SNB-78 was > 100 µM (inactive) each time.
On to `CCOC(C)OCC#CCCBr` (centres undefined), for which the GI50 in the assay on HOP-18 was > 100 µM (inactive); in the assay on DMS-114, 79.1 µM (inactive); in the assay with M19-MEL it was > 100 µM (inactive); with LXFL 529 it was > 100 µM (inactive); in the assay with SNB-78 it was > 100 µM (inactive).
For `CC1=C2C(=CC(C)(CO)C2O)C(=O)C(C)(O)C12CC2` (centres undefined), the GI50 was 0.007 µM (active) in the assay on HOP-18; 0.00205 µM (active) in the assay on DMS-114; 0.00337 µM (active) in the assay with M19-MEL; 0.00274 µM (active) in the assay on RXF 631; 0.00393 µM (active) in the assay with LXFL 529; 0.00144 µM (active) in the assay with SNB-78.
For `Cc1cccc(N(CC(=O)O)S(=O)(=O)c2ccccc2)c1`, the GI50 with HOP-18, in the assay on XF498, in the assay on M19-MEL, in the assay on RXF 631 and in the assay on LXFL 529 was > 100 µM (inactive) each time.
Take `O=c1c(O)c(-c2ccc(O)c(O)c2)oc2cc(O)ccc12` [FISETIN]: the GI50 was 21.2 µM (inactive) in the assay on HOP-18; 20.9 µM (inactive) with XF498; 15.2 µM (inactive) with DMS-114; 26 µM (inactive) in the assay with M19-MEL; 15 µM (inactive) in the assay with LXFL 529; 20.1 µM (inactive) in the assay with SNB-78.
